The numbers were not newly measured in patent US20130137664A1, “LOW-DOSED SOLID ORAL DOSAGE FORMS FOR HRT” (BAYER INTELLECTUAL PROPERTY GMBH, priority 2010, published 2013), which cites them from elsewhere.

This data set has as its system moderate or severe hot flushes in menopausal women. The following applies: 2 mg E2.

Turning to `C[C@]12CC[C@@H]3c4ccc(O)cc4CC[C@H]3[C@@H]1CC[C@@H]2O` [E2, estradiol], the estrogen-related adverse events entry was “increased”.
